Reference: patent US20140363425A1, “SYSTEMS AND METHODS FOR I[…] HAVING ACTIVATED PR[…]” (priority 2013, published 2014)

What was measured:
[1] = test system: AB32 cells; assay: Whole genome gene expression microarray in AB32 cells; type: cell-based, human; conditions: 10 nM, 2, 6 and 24 h
Experimental: (§1) Total RNA was isolated using RNAqueous purification columns (Invitrogen). Total RNA (500 ng) was amplified and biotin labelled using Illumina TotalPrep reagents (Invitrogen). The amplified samples (750 ng) were hybridized to human whole genome HT-12 gene expression bead arrays using the recommended Illumina reagents and following the manufacturer's protocol. Raw data were analysed using Genome Studio software (Illumina). After background subtraction data and cubic spline normalization, differential expression p values were determined using the Illumina custom model of Genome Studio. Data were further analysed using Microsoft Excel and SPSS statistical software. Hierarchical clustering and self organizing map clustering were performed using GenePattern.
In reference to FIG. 3B, T-47D and AB32 cells were treated with 10 nM ORG2058 (ORG) or vehicle for 2, 6 and 24 h. Transcript expression was measured by whole genome microarray. Genes that were differentially expressed in ORG2058 treated samples relative to the untreated control at one or more time point in T-47D or AB32 cells were compared by unsupervised hierarchical cluster analysis. Red—increased expression, green—decreased expression relative to vehicle treated control.
In reference to FIG. 10, progestin regulated transcripts were identified in AB32 cells at 2, 6 and 24 h treatment with 10 nM ORG2058 by gene expression profiling. […]

[2] = test system: PR; type: cell-based, human; conditions: AB32 cells (PR expressing clone of MCF-10A), 10 nM, 45 minutes, false discovery rate 0.27%
Experimental: (§2) In one aspect, PR genomic interactions were mapped in T-47D breast cancer cells and in the AB32 cell line: a stable PR expressing clone of the MCF-10A immortalized normal breast cell line. Cells were treated with the progestin ORG2058 (10 nM, 45 minutes), followed by PR-chromatin immunoprecipitation (ChIP) and Illumina sequencing. Sequences were aligned to the human genome and genomic regions enriched in the alignments were identified using the Bowtie and ERANGE [38] software tools (false discovery rate 0.27%).
(§3) Cells were cultured to 80% confluency in 15 cm tissue culture dishes, then treated for 45 minutes with 10 nM ORG2058 or vehicle. Chromatin was subsequently cross-linked by the addition of formaldehyde to the culture medium to a final concentration of 1% and incubation for 10 minutes at 37° C. Media were immediately removed and the cells were washed with cold phosphate buffered saline and harvested by scraping. Cells were collected by centrifugation and pellets were lysed 10 minutes at 4° C. in SDS buffer (1% SDS; 10 mM EDTA; 50 mM Tris-HCl, pH 8). The lysates were sonicated at 4° C. with a Branson 450 sonicator, using seven one minute bursts at 40% amplitude and 60% duty, each separated by a rest of at least one minute. Lysates were centrifuged at 13,000×g at 4° C. for 15 minutes to remove debris. […]

[3] = target: T1, PR (Homo sapiens, UniProt P06401); type: cell-based; set-up: endogenous in cells; host or cells: T-47D; conditions: T-47D breast cancer cells, 10 nM, 45 minutes, false discovery rate 0.27%
T1 sequence (P06401 1-933): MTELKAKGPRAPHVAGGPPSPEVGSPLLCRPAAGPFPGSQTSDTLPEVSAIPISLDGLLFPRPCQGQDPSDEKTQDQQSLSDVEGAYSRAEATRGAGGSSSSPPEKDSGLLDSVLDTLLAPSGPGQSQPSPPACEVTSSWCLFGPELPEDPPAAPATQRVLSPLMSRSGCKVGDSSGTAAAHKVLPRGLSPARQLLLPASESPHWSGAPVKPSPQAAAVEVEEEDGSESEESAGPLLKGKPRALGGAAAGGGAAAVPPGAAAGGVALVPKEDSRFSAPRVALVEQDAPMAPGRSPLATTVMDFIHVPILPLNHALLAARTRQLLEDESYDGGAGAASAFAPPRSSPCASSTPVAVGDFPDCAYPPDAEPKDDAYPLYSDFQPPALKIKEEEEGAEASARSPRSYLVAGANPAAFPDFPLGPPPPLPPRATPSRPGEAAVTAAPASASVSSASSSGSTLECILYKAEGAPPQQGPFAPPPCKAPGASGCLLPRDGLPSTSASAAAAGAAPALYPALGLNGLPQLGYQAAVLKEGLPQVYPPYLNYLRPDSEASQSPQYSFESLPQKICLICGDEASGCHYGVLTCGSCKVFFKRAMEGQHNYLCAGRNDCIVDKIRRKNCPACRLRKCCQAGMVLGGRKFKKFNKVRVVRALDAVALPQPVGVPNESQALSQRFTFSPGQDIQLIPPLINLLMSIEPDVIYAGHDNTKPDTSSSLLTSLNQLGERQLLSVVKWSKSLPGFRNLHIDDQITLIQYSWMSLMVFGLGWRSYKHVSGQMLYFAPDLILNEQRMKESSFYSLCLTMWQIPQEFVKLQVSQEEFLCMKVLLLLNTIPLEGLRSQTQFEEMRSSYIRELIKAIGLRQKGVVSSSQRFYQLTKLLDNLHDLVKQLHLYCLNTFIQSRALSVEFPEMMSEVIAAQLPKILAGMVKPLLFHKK
Experimental: as §2, §3

[4] = test system: T-47D cells; assay: Whole genome gene expression microarray in T-47D cells; type: cell-based, human; conditions: 10 nM, 2, 6 and 24 h, self-organizing map clustering
Experimental: as §1
(A and B) Overlap between PR binding regions and progestin regulated genes in (A) T-47D and (B) AB32 cells. (C and D) PR binding regions within 10 kb or in the 5′-UTR of genes regulated at 2, 6 and 24 h in (C) T-47D and (D) AB32 cells. (E) Genes with patterns of progestin regulation in T-47D cells that grouped together were identified by SOM cluster analysis using Gene Pattern. […]
In reference to FIG. 3B, T-47D and AB32 cells were treated with 10 nM ORG2058 (ORG) or vehicle for 2, 6 and 24 h. Transcript expression was measured by whole genome microarray. […]

[5] = target: T1, PR; conditions: cited from earlier work

| SMILES | direction of transcript regulation [1] | PR binding regions detected [2] | peaks of PR binding identified [3] | cluster of transcripts decreased at all time points, beginning to return toward basal levels at 24 h [4] | dissociation from PR compared with ORG2058 [5] |
| --- | --- | --- | --- | --- | --- |
| CC[C@@H]1C[C@H]2[C@@H]3CCC4=CC(=O)CC[C@@H]4[C@H]3CC[C@]2(C)[C@H]1C(=O)CO [ORG2058, (8R,9S,10R,13S,14S,16R,17S)-16-ethyl-17-(2-hydroxyacetyl)-13-methyl-2,6,7,8,9,10,11,12,14,15,16,17-dodecahydro-1H-cyclopenta[a]phenanthren-3-one] | more transcripts were decreased than increased | 8117 | 6312 | 26 |  |
| CC(=O)[C@H]1CC[C@H]2[C@@H]3CCC4=CC(=O)CC[C@]4(C)[C@H]3CC[C@]12C [progesterone] |  |  |  |  | dissociates from PR more rapidly |
